# Assay results from article doi:10.1101/356956v1 (biorxiv, 2018).
# Target: T1, recombinant human caspase-3 (Homo sapiens, UniProt P42574)
# T1 sequence (P42574 29-175): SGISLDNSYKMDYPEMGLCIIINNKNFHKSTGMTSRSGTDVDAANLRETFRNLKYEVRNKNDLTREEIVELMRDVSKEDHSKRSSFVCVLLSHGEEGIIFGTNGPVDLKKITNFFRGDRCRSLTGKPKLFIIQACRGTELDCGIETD
# T1 sequence (P42574 176-277): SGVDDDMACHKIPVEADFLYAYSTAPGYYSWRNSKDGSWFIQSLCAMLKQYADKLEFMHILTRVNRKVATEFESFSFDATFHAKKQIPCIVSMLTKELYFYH
# Assay: Caspase-Glo […] luminescence assay, dose-response
# Assay type: biochemical
row,IC50 [µM],SMILES
1,10.4 ± 0.5,O=C(O)c1cc(-c2ccc(F)cc2F)ccc1O [Diflunisal]
2,47 ± 6.07,CC(C(=O)O)c1cccc(Oc2ccccc2)c1 (stereo not drawn) [Fenoprofen]
3,54.3 ± 0.6,CC(C(=O)O)c1ccc2c(c1)Cc1cccnc1O2 (stereo not drawn) [Pranoprofen]
